# Entries after “also recorded” stand apart in the source; their conditions may differ.
# Experiments:
# [1] = system: Aβ1-42-induced toxicity in SH-SY5Y cells; test: Protective activity against Aβ1-42-induced toxicity, MTT method; format: cell-based; conditions: for viability at 5 µM / viability at 10 µM: Homo sapiens, SH-SY5Y, 24 h, read-out: cell viability of Aβ1-42-treated SH-SY5Y cells
# Experimental: Based on this observation, compound 23 might be a more promising protective agent against Aβ1-42-induced toxicity on the SH-SY5Y cell model.
# (§1) The MTT method was used to test the cytotoxicity and neuroprotective activity evaluation of compounds. The detailed procedure was included in Supplementary Materials. […]
# (§2) formazan crystals. The formazan dye product was measured by the absorbance at 490 nm on a Tecan Spark multimode microplate reader (Tecan, Switzerland).
# (§3) Neuroprotective activity assay
# SH-SY5Y cells were maintained at 37 °C in a humidified atmosphere containing 5% CO2. Cells were seeded into multi-well plates at a density of 2~2.5 × 10^5 cells/mL in DMEM medium, supplemented with 10% heat-inactivated bovine calf serum (Gibco, South America Origin). Experiments were carried out in 24 h after cells were seeded.
# Aβ1–42 were stored at 4 °C until 0.1 mM stock solutions were prepared in phosphate bufer saline (PBS) on the day of application to cultures. Th e compounds were first dissolved with DMSO and then diluted with DMEM medium. After pretreatment with the compounds for 2 h, Aβ1–42 were added to SH-SY5Y cell cultures in 24 h. Assays for cell viability were performed in 24 h after cultured in fresh medium .
# [2] = system: SH-SY5Y neuroblastoma cells; test: Cell viability (cytotoxicity) MTT assay; format: cell-based; conditions: tested concentrations up to 200 μM
# Experimental: as §1
# 42 and ThT; in the presence of Aβ1–42 and THT but no inhibitors; and the blanks […]
# SH-SY5Y cells were inoculated into 96-well plates, and each well was seeded with […]. After incubation for 24 h, the medium was removed and replaced with 100 µL medium containing the different concentrations of tested compounds for 24 h, and then incubated with 10 µL of 3-(4,5-dimethylthiazol-2-yl)-2,5-diphenyltetrazolium bromide (MTT) at 37 °C for 3 h. In this step, 100 µL DMSO was added to dissolve the […]
# (1 picture or pasted object on this page, not shown here) […]
# as §2, §3
# SH-SY5Y cells were maintained at 37 °C in a humidified atmosphere containing 5% CO2. Cells were seeded into multi-well plates at a density of 2~2.5 × 10^5 cells/mL in DMEM medium, supplemented with 10% heat-inactivated bovine calf serum (Gibco, South America Origin). Experiments were carried out in 24 h after cells were seeded. […]
# Th e compounds were first dissolved with DMSO and then diluted with DMEM medium. […]
# [3] = molecular target: T1, BChE (Homo sapiens, UniProt P06276); test: Kinetic study of BChE inhibition (Lineweaver-Burk); format: biochemical
# T1 construct: BChE (EC 3.1.1.8, from human serum); purchased Sigma-Aldrich (St. Louis, MO, USA); host or cells: human serum
# T1 sequence (P06276 29-602): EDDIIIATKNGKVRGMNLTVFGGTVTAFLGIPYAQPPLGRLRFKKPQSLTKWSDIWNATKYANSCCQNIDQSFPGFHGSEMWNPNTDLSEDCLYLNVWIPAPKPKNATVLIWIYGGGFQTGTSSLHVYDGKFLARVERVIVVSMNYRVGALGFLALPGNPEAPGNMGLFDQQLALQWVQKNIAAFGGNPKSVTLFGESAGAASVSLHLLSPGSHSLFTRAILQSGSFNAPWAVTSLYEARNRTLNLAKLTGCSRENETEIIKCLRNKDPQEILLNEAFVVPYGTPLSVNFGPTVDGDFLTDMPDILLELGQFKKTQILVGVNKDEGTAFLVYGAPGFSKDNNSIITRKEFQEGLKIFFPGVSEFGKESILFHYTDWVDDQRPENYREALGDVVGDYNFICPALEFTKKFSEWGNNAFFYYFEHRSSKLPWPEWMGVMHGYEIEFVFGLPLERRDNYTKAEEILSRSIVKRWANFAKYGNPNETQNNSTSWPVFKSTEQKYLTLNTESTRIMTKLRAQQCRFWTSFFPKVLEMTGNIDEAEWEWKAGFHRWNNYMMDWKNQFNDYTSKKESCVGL
# Experimental: To further understand the action mechanism for BChE inhibition of this series of compounds, the kinetic assay was performed with the optimal compound 23 as a model compound. […]. […] The result was confirmed by the subsequent molecular docking study of 23. […].
# Kinetic study of BChE inhibition was performed by using Ellman’s method as described in Section 3.3.
# Figure 3 Kinetic study of 23 on BChE inhibition. […];
# [4] = molecular target: T2, Aβ1-42 aggregation (Homo sapiens, UniProt P05067); test: Inhibition of Aβ1-42 aggregation, thioflavin T (ThT) method; format: biochemical; conditions: for inhibitory activity against Aβ1-42 aggregation (in words): 1 to 10 μM; for inhibition ratio towards Aβ1-42 aggregation: at 10 μM
# T2 construct: pre-treated Aβ1–42 (GL Biochem Ltd); purchased GL Biochem Ltd, shanghai, China
# T2 sequence (P05067 672-713): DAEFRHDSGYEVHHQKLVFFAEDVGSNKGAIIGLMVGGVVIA
# Experimental: The ThT-based fluorometric assay [54] was performed for the determination of compounds’ anti-Aβ1–42 aggregation potency.
# Determination of the inhibitory potency on Aβ1–42 aggregation
# 1,1,1,3,3,3-hexafluoro-2-propanol (HFIP) pre-treated Aβ1–42 (GL Biochem Ltd, shanghai, China) was dissolved in DMSO to make a 200 μM stock solution. The stock solution was centrifuged at the speed of 13,500 rpm for 10 min. The above supernatant was used for further experiments. The compounds for testing were dissolved in DMSO at concentrations of 0.8 mM. A screening assay for the compounds to inhibit Aβ aggregation was performed by measuring ThT fluorescence emission.
# μL) and 2 μL of 200 μM Aβ1–42 were added into 76 μL of phosphate-bufered saline (PBS at pH 7.4) in a 96-well microtiter plate. After incubation for 24 h at room temperature, 80 μL of 5 μM ThT solution (in 50 mM glycine-NaOH at pH 8.5) was added to the reaction solution. Fluorescence emission was measured at 490 nm with an excitation wavelength of 450 nm on a Tecan Spark multimode microplate reader. The fluorescence intensities were compared and the % inhibition was calculated by the following equation: 100 − [(Fi − Fb)/(Fo − Fb) × 100] where Fi, Fo and Fb are the fluorescence intensities obtained for Aβ aggregation in the presence of inhibitors, A β1– 42 and ThT; in the presence of Aβ1–42 and THT but no inhibitors; and the blanks
# [5] = molecular target: T3, BChE (EC 3.1.1.8, from human serum) (Homo sapiens, UniProt P06276); test: biochemical; conditions: for BChE IR (%) inhibition ratio: at 50 μM; for improved BChE inhibitory activity, folds compared with 1: compared with hit 1; for IC50: mean ± SD of three separate experiments
# T3 construct: BChE (EC 3.1.1.8, from human serum); purchased Sigma-Aldrich (St. Louis, MO, USA); host or cells: human serum
# T3 sequence (P06276 29-602): as the sequence (P06276 29-602) above
# Experimental: (§4) BChE (EC 3.1.1.8, from human serum), AChE (EC […]), butyrylthiocholine (BUC) iodide, and acetylthiocholine (ATC) iodide were purchased from Sigma-Aldrich (St. Louis, MO, USA). Enzyme was dissolved and pre-prepared at 2.0 U/mL. 10 μL of enzyme, 20 μL of 0.01 M 5,5′-dithiobis(2-nitrobenzoic acid), 10 μL of tested compound, and 40 μL of PBS were pre-incubated together for 5 min. Io initiate the reaction, 20 μL of 0.01 M BUC or ATC was added. The activity was determined by measuring the increase in absorbance at 410 nm at 37 °C in 2 min intervals using Tecan Spark multimode microplate reader (Mannedorf, Switzerland). The percentage of inhibition (I) was calculated according to the formula: I = (Ac − Ai)/Ac × 100%, with Ai and Ac representing the change in the absorbance in the presence of an inhibitor and without an inhibitor, respectively.
# [6] = molecular target: T4, AChE (from human erythrocyte) (Homo sapiens, UniProt P22303); test: biochemical; conditions: at 50 μM
# T4 construct: AChE (EC 3.1.1.8, from human erythrocyte); purchased Sigma-Aldrich (St. Louis, MO, USA); host or cells: human erythrocyte
# T4 sequence (P22303 other isoform, or with tags, fused parts or gaps): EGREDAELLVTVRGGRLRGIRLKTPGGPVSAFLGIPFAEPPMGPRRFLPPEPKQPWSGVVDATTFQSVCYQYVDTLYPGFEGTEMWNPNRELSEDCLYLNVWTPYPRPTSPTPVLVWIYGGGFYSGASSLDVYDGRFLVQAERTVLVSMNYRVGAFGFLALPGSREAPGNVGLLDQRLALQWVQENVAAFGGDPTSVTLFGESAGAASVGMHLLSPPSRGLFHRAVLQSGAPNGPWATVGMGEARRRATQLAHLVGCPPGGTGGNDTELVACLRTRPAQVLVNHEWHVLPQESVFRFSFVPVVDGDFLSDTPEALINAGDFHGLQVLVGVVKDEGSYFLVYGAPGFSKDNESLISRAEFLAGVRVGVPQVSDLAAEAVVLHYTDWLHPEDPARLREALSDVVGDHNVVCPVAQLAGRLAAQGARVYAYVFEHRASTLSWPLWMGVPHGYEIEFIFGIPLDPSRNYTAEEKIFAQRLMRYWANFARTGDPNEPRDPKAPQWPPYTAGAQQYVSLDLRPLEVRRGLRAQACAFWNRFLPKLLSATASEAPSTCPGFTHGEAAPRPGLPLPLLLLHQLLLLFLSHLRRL
# Experimental: as §4
SMILES,"cell viability of Aβ1-42-treated SH-SY5Y cells ([1]; compound at 10 μM, 10 μM Aβ1-42 for 24h)",cytotoxicity towards SH-SY5Y cells [2],"Ki ([3]; BChE, read-out: KI value (replot of slope against concentration))",type of BChE inhibition ([3]; Lineweaver-Burk plots),inhibitory activity against Aβ1-42 aggregation (in words) [4],inhibition ratio towards Aβ1-42 aggregation [4],viability at 5 µM [1],viability at 10 µM [1],BChE IR (%) inhibition ratio [5],fold increase in BChE inhibitory potency ([5]; compared with 9),fold increase in BChE inhibitory potency ([5]; compared with 16),"improved BChE inhibitory activity, folds compared with 1 [5]",IC50 [5],AChE IR (%) inhibition ratio [6]
"O=C(O[C@@H]1Cc2c(O)cc(O)cc2O[C@@H]1c1cc(O)c(O)c(O)c1)c1cc(O)c(O)c(O)c1 [EGCG, epigallocatechin gallate, reference compound]",87.18 ± 1.29%,–,–,–,–,–,–,–,–,–,–,–,–,–
"O=C(Nc1ccccc1Br)c1ccc(CN2CCc3ccccc3C2)cc1 [Compound 23, N-(2-bromophenyl)-4-((3,4-dihydroisoquinolin-2(1H)-yl)methyl)benzamide]",–,did not show obvious cytotoxicity; also recorded: non-toxic,520 nM,mixed-type inhibitor,dose-dependent manner,44.2 ± 3.3%,91.1 ± 1.25%,98 ± 1.7%,97.9%,about 3 fold,~8 fold,21 fold,830 ± 80 nM,22.7%
"O=C(c1ccc(CN2CCc3ccccc3C2)cc1)N1CCCC1 [Compound 9, (4-((3,4-dihydroisoquinolin-2(1H)-yl)methyl)phenyl)(pyrrolidin-1-yl)methanone]",–,did not show obvious cytotoxicity; also recorded: non-toxic,–,–,dose-dependent manner,45.5 ± 6.2%,84.7 ± 1.77%,88.8 ± 0.81%,95.1%,–,–,9 fold,2680 ± 280 nM,29.1%
